Among the data in ChEMBL document CHEMBL1122786, “Synthesis and antifolate properties of 10-alkyl-8,10-dideazaminopterins” (J Med Chem, 1984) are ILS, MST and LD10 values, retold here.

Data set [1] is filed under the species Mus musculus. As to the kind of experiment: Compound was evaluated for antitumor activity against L1210 leukemia in mice and percent increase in life span was determined. The class given is functional.
Data set [2] is filed under the species Mus musculus. As to the kind of experiment: Compound was evaluated for antitumor activity against L1210 leukemia in mice and median survival time was determined at ten mice per run. The class given is functional.
In data set [3] the test system is Mus musculus. The experiment in a line: Compound was evaluated for antitumor activity against L1210 leukemia in mice and LD10 was determined 24 hour after subcutaneous administration in 10 E 6 cells implanted intraperitoneally. The settings on record: in vivo, sc. The class given is ADME, organism-based.
Data set [4] is filed under the species Mus musculus. The experiment in a line: Compound was evaluated for antitumor activity against L1210 leukemia in mice and median survival time was determined at ten animals per run. The class given is functional.

SMILES strings stand for the structures.

In the data set filed under Mus musculus [1], `CC(Cc1ccc2nc(N)nc(N)c2n1)c1ccc(C(=O)NC(CCC(=O)O)C(=O)O)cc1` (stereo not drawn) returned an ILS of 203%. The same compound yielded an MST in the data set listed under Mus musculus [2] of 21.5 days. For the same compound, the LD10 with Mus musculus [3] turned out to be 0.6 mg/kg.

As for `CCC(Cc1ccc2nc(N)nc(N)c2n1)c1ccc(C(=O)NC(CCC(=O)O)C(=O)O)cc1` (stereo not drawn), the ILS in the data set listed under Mus musculus [1] came to 235%. In the data set listed under Mus musculus [4], the MST stood at 23.8 days. In addition, the LD10 in the data set with Mus musculus [3] came out at 1.5 mg/kg.

Turning to `CCCC(Cc1ccc2nc(N)nc(N)c2n1)c1ccc(C(=O)NC(CCC(=O)O)C(=O)O)cc1` (stereo not drawn), the ILS in the data set listed under Mus musculus [1] is listed as 176%. This compound came in with an LD10 in the data set on Mus musculus [3] of 6 mg/kg.

As to `Nc1nc(N)c2nc(CCc3ccc(C(=O)NC(CCC(=O)O)C(=O)O)cc3)ccc2n1` (stereo not drawn), in the data set filed under Mus musculus [1], the ILS is listed as 189%. For the same compound, the LD10 with Mus musculus [3] came out at 0.75 mg/kg.

Turning to `CN(Cc1cnc2nc(N)nc(N)c2n1)c1ccc(C(=O)N[C@@H](CCC(=O)O)C(=O)O)cc1` [METHOTREXATE], the ILS in the data set filed under Mus musculus [1] was found to be 187%. For the same compound, in the data set filed under Mus musculus [4], the MST came to 20.4 days. In the data set on Mus musculus [3], this compound showed an LD10 of 15 mg/kg.
